We go through nine compounds from PubChem BioAssay (NCI).

SMILES strings stand for the structures. “And” between values parts separate entries of the source, which are not always exact repeats. Equal values may be shown once.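 The compound was tested at five concentrations on cells cultured in 96-well plates, with a 48-hour exposure period. The concentration for 50% growth inhibition is given as GI50. Definition used: TGI = concentration required for complete inhibition of growth.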 A value given as a limit tells only on which side of the number the result lay.

Among the test systems are HCT-116 colon; OVCAR-4 ovarian; OVCAR-3 ovarian; SF-295 CNS; 786-0 renal; NCI-H522 lung; LOX IMVI melanoma; MALME-3M melanoma; COLO 205 colon; U251 CNS.
Experiment in all cases: NCI tumour cell line growth inhibition, 48 h

Regarding `COc1ccc(/C=C/C(=O)c2c(O)ccc3c(C)c(C(=O)O)oc23)cc1`, the GI50 is 49.2 µM with HCT-116 colon; more than 100 µM with OVCAR-4 ovarian; 58.3 µM in the experiment with OVCAR-3 ovarian; 35.1 µM in the experiment with SF-295 CNS; 90.3 µM in the experiment with 786-0 renal; 33.9 µM in the experiment on NCI-H522 lung. The GI50 in the experiment with LOX IMVI melanoma is 35.6 µM; with MALME-3M melanoma, 94.6 µM; with COLO 205 colon it was 63.4 µM; in the experiment with U251 CNS it was 33.2 µM. Besides, the TGI with HCT-116 colon, in the experiment with OVCAR-4 ovarian, in the experiment with OVCAR-3 ovarian, in the experiment on SF-295 CNS, in the experiment with 786-0 renal and in the experiment with NCI-H522 lung was more than 100 µM throughout. Also, the TGI with LOX IMVI melanoma, in the experiment on MALME-3M melanoma, with COLO 205 colon and with U251 CNS was more than 100 µM throughout.

For `NC1N=Nc2ccccc21` (stereo not given), the TGI with HCT-116 colon, in the experiment with OVCAR-4 ovarian, in the experiment on OVCAR-3 ovarian, in the experiment with SF-295 CNS, with 786-0 renal and with NCI-H522 lung was more than 100 µM each time. Also, the TGI with LOX IMVI melanoma, in the experiment on MALME-3M melanoma, in the experiment on COLO 205 colon and with U251 CNS was more than 100 µM throughout.

Turning to `CN1CCN(Cc2ccc(NC(=O)c3cncc(C#Cc4c(N)ncc5ccc(C#N)cc45)c3)cc2C(F)(F)F)CC1`, the GI50 in the experiment with HCT-116 colon was 0.7 µM; with OVCAR-4 ovarian, 0.558 µM; with OVCAR-3 ovarian, 3.61 µM; in the experiment on SF-295 CNS, 8.67 µM; with 786-0 renal it was 0.901 µM; in the experiment on NCI-H522 lung, 0.748 µM. For the same compound, the GI50 in the experiment with LOX IMVI melanoma is 0.29 µM; in the experiment with MALME-3M melanoma, 0.0477 µM; with COLO 205 colon it was 0.121 µM; with U251 CNS, 0.864 µM. Further, the TGI in the experiment on HCT-116 colon was 1.44 µM; in the experiment with OVCAR-4 ovarian, 1.37 µM; in the experiment on OVCAR-3 ovarian it was 14.3 µM; in the experiment with SF-295 CNS it was 18 µM; with 786-0 renal it was 1.71 µM; with NCI-H522 lung it was 2.01 µM. In addition, the TGI with LOX IMVI melanoma stood at 1.07 µM; in the experiment with MALME-3M melanoma it was 0.331 µM; in the experiment on COLO 205 colon, 50 µM; in the experiment with U251 CNS it was 1.67 µM.

In the case of `Oc1cc(N2CC2)c(O)cc1N1CC1`, the GI50 with HCT-116 colon was 0.615 µM; in the experiment on OVCAR-4 ovarian it was 2.28 µM; in the experiment with OVCAR-3 ovarian, 0.839 µM; in the experiment on SF-295 CNS it was 0.377 µM; with 786-0 renal, 0.742 µM; in the experiment on NCI-H522 lung it was 0.287 µM. Also, the GI50 in the experiment with LOX IMVI melanoma was 0.322 µM; in the experiment on MALME-3M melanoma, 0.217 µM; in the experiment on COLO 205 colon, 1.02 µM; in the experiment on U251 CNS, 0.577 µM. For the same compound, the TGI in the experiment with HCT-116 colon was 10.8 µM; in the experiment on OVCAR-4 ovarian, 8.9 µM; with OVCAR-3 ovarian, 4.46 µM; in the experiment on SF-295 CNS it was 5.32 µM; in the experiment with 786-0 renal it was 4.69 µM; with NCI-H522 lung it was 1.48 µM. Besides, the TGI came to 2.42 µM in the experiment on LOX IMVI melanoma, 0.55 µM in the experiment with MALME-3M melanoma, 2.21 µM in the experiment with COLO 205 colon and 10.7 µM in the experiment with U251 CNS.

In the case of `O=C(CN1CCN(Cc2ccccc2Cl)CC1)NC1CC(=O)c2c(Br)sc(Br)c21` (stereo not given), the GI50 is 17.3 µM with HCT-116 colon; 18.9 µM in the experiment with OVCAR-4 ovarian; 20.8 µM with OVCAR-3 ovarian; 25.6 µM in the experiment on SF-295 CNS; 19.4 µM in the experiment with 786-0 renal; 2 µM with NCI-H522 lung. Moreover, the GI50 is 18.6 µM in the experiment on LOX IMVI melanoma, 21.6 µM with MALME-3M melanoma, 21.2 µM in the experiment on COLO 205 colon and 19.7 µM with U251 CNS. The TGI in the experiment with HCT-116 colon was 32.9 µM; in the experiment on OVCAR-4 ovarian, 34.4 µM; with OVCAR-3 ovarian it was 43.4 µM; in the experiment on SF-295 CNS it was 57.6 µM; with 786-0 renal, 40.4 µM; in the experiment with NCI-H522 lung, 5.06 µM. For the same compound, the TGI in the experiment on LOX IMVI melanoma is 35.8 µM; with MALME-3M melanoma it was 43.8 µM; in the experiment with COLO 205 colon, 38.4 µM; in the experiment on U251 CNS it was 35.3 µM.

With `C[C@@H](N)COc1ccc(-c2cnc3ccc(N[C@H](C)c4cccc(F)c4)nn23)cc1`, the GI50 in the experiment with HCT-116 colon is 1.46 µM; in the experiment with OVCAR-4 ovarian, 2.49 µM; in the experiment on OVCAR-3 ovarian, 2.12 µM; in the experiment with SF-295 CNS, 1.8 µM; with 786-0 renal it was 1.33 µM; in the experiment on NCI-H522 lung it was 1.42 µM. Moreover, the GI50 in the experiment with LOX IMVI melanoma was 1.42 µM; in the experiment with MALME-3M melanoma it was 1.33 µM; with COLO 205 colon, 1.1 µM; with U251 CNS, 1.59 µM. Further, the TGI came to 3.07 µM in the experiment on HCT-116 colon; 11.9 µM in the experiment with OVCAR-4 ovarian; 4.66 µM in the experiment with OVCAR-3 ovarian; 4.01 µM in the experiment with SF-295 CNS; 2.74 µM in the experiment on 786-0 renal; 3.17 µM in the experiment on NCI-H522 lung. Besides, the TGI in the experiment with LOX IMVI melanoma was determined as 2.72 µM; in the experiment on MALME-3M melanoma it was 2.62 µM; in the experiment on COLO 205 colon, 2.96 µM; with U251 CNS, 4.18 µM.

Take `NC(=O)c1cccc2c(N[C@H](CN3CCC3)c3ccc(Cl)c(C(F)(F)F)c3)ncnc12`: the GI50 with HCT-116 colon is 2.32 µM; in the experiment with OVCAR-4 ovarian, 3.26 µM; in the experiment on OVCAR-3 ovarian, 3.3 µM; in the experiment on SF-295 CNS it was 0.293 µM; in the experiment with 786-0 renal, 0.0921 µM; in the experiment with NCI-H522 lung it was 5.1 µM. In addition, the GI50 was 2.73 µM in the experiment with LOX IMVI melanoma, 0.399 µM in the experiment on MALME-3M melanoma, 0.837 µM in the experiment with COLO 205 colon and 0.548 µM with U251 CNS. Further, the TGI in the experiment on HCT-116 colon was found to be 11.7 µM; in the experiment on OVCAR-4 ovarian it was 16.6 µM; with OVCAR-3 ovarian, 16.2 µM; in the experiment with SF-295 CNS, 2.88 µM; in the experiment on 786-0 renal, 1.76 µM; with NCI-H522 lung, 20.3 µM. The TGI in the experiment with LOX IMVI melanoma is 14.7 µM; in the experiment with MALME-3M melanoma, 1.85 µM; in the experiment on COLO 205 colon, 2.66 µM; with U251 CNS, 12.1 µM.

Regarding `CS(=O)(=O)CCNCc1ccc(-c2ccc3ncnc(Nc4ccc(OCc5cccc(F)c5)c(Cl)c4)c3c2)o1`, the GI50 is > 10 µM and 7.19 µM and 10.3 µM in the experiment with HCT-116 colon; > 10 µM and 7.8 µM and 6.78 µM in the experiment with OVCAR-4 ovarian; > 10 µM and 3.54 µM and 8.01 µM in the experiment on OVCAR-3 ovarian; 6.84 µM and 5.32 µM and 3.54 µM in the experiment with SF-295 CNS; > 10 µM and 4.43 µM and 5.46 µM with 786-0 renal; 0.28 µM and 0.397 µM and 0.815 µM in the experiment on NCI-H522 lung. Also, the GI50 in the experiment on LOX IMVI melanoma was 8.23 µM and 1.79 µM and 4.19 µM; in the experiment on MALME-3M melanoma it was > 10 µM and 1.66 µM and 2.67 µM; in the experiment on COLO 205 colon, > 10 µM and > 78.8 µM and 10.3 µM; in the experiment with U251 CNS it was > 10 µM and 6.7 µM and 9.36 µM. For the same compound, the TGI is > 10 µM and > 100 µM and 23.6 µM in the experiment on HCT-116 colon; > 10 µM and > 86.9 µM and 23.3 µM with OVCAR-4 ovarian; > 10 µM and 52.6 µM and 24.2 µM in the experiment on OVCAR-3 ovarian; > 10 µM and > 100 µM and 24.8 µM in the experiment with SF-295 CNS; > 10 µM and > 42.3 µM and 29.2 µM in the experiment with 786-0 renal; > 10 µM and > 100 µM and 28.9 µM with NCI-H522 lung. Further, the TGI was > 10 µM and 3.35 µM and 10.1 µM in the experiment with LOX IMVI melanoma; > 10 µM and 3.23 µM and 6.56 µM in the experiment on MALME-3M melanoma; > 10 µM and > 100 µM and 33.3 µM in the experiment on COLO 205 colon; > 10 µM and > 100 µM and 24.9 µM in the experiment with U251 CNS.

With `Cc1cc(Cl)nc2ccc(Cc3ccc4nc(Cl)cc(C)c4c3)cc12`, the TGI with HCT-116 colon was more than 100 µM; with OVCAR-4 ovarian, more than 100 µM; in the experiment with OVCAR-3 ovarian, more than 100 µM; with SF-295 CNS it was more than 100 µM; in the experiment with 786-0 renal, 30.7 µM; in the experiment on NCI-H522 lung, more than 100 µM. Further, the TGI was more than 100 µM in the experiment with LOX IMVI melanoma, more than 100 µM in the experiment with MALME-3M melanoma, more than 100 µM in the experiment on COLO 205 colon and 79.3 µM in the experiment with U251 CNS.
